Laboratory results from US20060025566A1, “Macrocyclic modulators of the ghrelin receptor” (Tranzyme Pharma Inc., priority 2003, published 2006).
Read-outs that look alike come from different tables or passages of the source.

Legend:
[1] = target: human ghrelin receptor (hGHS-R1a) (Homo sapiens, UniProt Q92847); assay: Aequorin functional assay (ghrelin receptor), CHO-K1 cells co-expressing Gα16 and aequorin; format: cell-based; settings: functional (agonist) activity, standard method; TFA salts unless otherwise noted
Description: Coelenterazine (Molecular Probes, Leiden, The Netherlands). […] Compound Handling
(§1) • 1. […] Key Aspects of Method • 1. […] Results

[2] = target: T1, human growth hormone secretagogue receptor (hGHS-R1a) (Homo sapiens, UniProt Q92847); assay: Competitive radioligand binding assay (ghrelin receptor), [125I]-ghrelin displacement on GHS-R/HEK 293 membranes
T1 construct: purchased PerkinElmer BioSignal #RBHGHSM, lot#1887; host or cells: HEK-293, stably transfected (membranes)
Method: The competitive binding assay at the human growth hormone secretagogue receptor (hGHS-R1a) was carried out analogously to assays described in the literature.
Multiscreen Harvest plates-GF/C (Millipore, #MAHFC 1H60) • 4. […] Bottom seal (Millipore, #MATAH0P00) • 7. […] Binding Buffer: 25 mM Hepes (pH 7.4), 1 mM CaCl2, 5 mM MgCl2, 2.5 mM EDTA, 0.4% BSA Assay Volumes
Competition experiments were performed in a 300 μl filtration assay format. • 1. 220 μL of membranes diluted in binding buffer • 2. 40 μL of compound diluted in binding buffer • 3. […] Compound Handling
Compounds were provided frozen on dry ice at a stock concentration of 10 mM diluted in 100% DMSO and stored at −80° C. until the day of testing. On the test day, compounds were allowed to thaw at rt O/N and then diluted in assay buffer according to the desired test concentrations.
Plates were sealed with TopSeal-A, vortexed gently and incubated at rt for 30 min. The reaction was arrested by filtering samples through Multiscreen Harvest plates (pre-soaked in 0.5% polyethyleneimine) using a Tomtec Harvester, washed 9 times with 500 μL of cold 50 mM Tris-HCl (pH 7.4, 4° C.), and then plates were air-dried in a fumehood for 30 min. A bottom seal was applied to the plates prior to the addition of 25 μL of MicroScint-0 to each well. […] Results were expressed as counts per minute (cpm).
Data were analyzed by GraphPad Prism (GraphPad Software, San Diego, Calif.) using a variable slope non-linear regression analysis.
as §1

[3] = [125I]-ghrelin competition, GHS-R/HEK 293 membranes, Table 3A, read-out: Binding Activity at the Human Ghrelin Receptor
[4] = binding activity, standard method, TFA salts unless otherwise noted, read-out: Ki
[5] = binding activity at the human ghrelin receptor, [125I]-ghrelin competition, GHS-R/HEK 293 membranes, read-out: Ki

Sequence of human ghrelin receptor (hGHS-R1a) (Q92847 whole entry): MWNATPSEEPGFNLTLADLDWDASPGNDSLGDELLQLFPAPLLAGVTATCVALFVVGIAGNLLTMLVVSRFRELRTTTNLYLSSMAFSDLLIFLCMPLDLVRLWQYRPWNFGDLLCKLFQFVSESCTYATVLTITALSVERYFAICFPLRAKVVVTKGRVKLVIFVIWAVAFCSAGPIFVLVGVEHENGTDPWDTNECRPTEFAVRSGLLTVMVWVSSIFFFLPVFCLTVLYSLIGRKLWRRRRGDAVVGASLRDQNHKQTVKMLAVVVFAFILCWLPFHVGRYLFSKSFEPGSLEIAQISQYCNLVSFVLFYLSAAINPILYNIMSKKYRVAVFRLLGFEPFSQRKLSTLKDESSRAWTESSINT
T1 sequence (Q92847 whole entry): as above

| Structure (SMILES) | EC50 [1] [nM] | Ki [2, 3] [nM] | Ki [2, 4] [nM] | Ki [2, 5] [nM] | Ki ([2]; Table 3C (compounds 18, 334-397), human ghrelin receptor, read-out: Ki) [nM] | Ki ([2]; binding activity at the human ghrelin receptor, [125I]-ghrelin displacement, read-out: Ki) [nM] |
| --- | --- | --- | --- | --- | --- | --- |
| CCC(C)C1NCc2ccccc2CCCCNC(=O)C(Cc2ccccc2)NC(=O)C(C)N(C)C1=O (single isomer, unassigned) [194a] | 100 to 1000 | 100 to 1000 | 100 to 1000 | – | – | – |
| CCC[C@@H]1NCCOc2ccccc2CCCNC(=O)[C@@H](Cc2c[nH]c3ccccc23)NC(=O)CN(C)C1=O [Compound 6] | 1 to 100 | – | 100 to 1000 | 100 to 1000 | – | – |
| CCC[C@@H]1NCCOc2ccccc2CCCNC(=O)[C@@H](Cc2ccccc2)NC(=O)CN(CC)C1=O [compound 5] | 100 to 1000 | – | – | 100 to 1000 | – | – |
| CC[C@H](C)[C@@H]1NCCOc2ccccc2CCCNC(=O)[C@@H](Cc2ccccc2Cl)NC(=O)[C@@H](C)N(C)C1=O [compound 23] | 1 to 100 | – | 0.1 to 10 | 0.1 to 10 | – | – |
| CC[C@H](C)[C@@H]1NCCOc2ccccc2CCCNC(=O)[C@@H](Cc2cccc3ccccc23)NC(=O)[C@@H](C)N(C)C1=O [compound 30] | 1 to 100 | – | 0.1 to 10 | 0.1 to 10 | – | – |
| CC[C@H](C)[C@@H]1NCCOc2ccccc2CCCNC(=O)[C@@H]([C@@H](C)CC)NC(=O)[C@@H](C)N(C)C1=O [compound 209] | – | 100 to 1000 | – | – | – | – |
| CCC(C)C1NCCOc2ccccc2CCCNC(=O)C(Cc2ccccc2)NC(=O)C(CC)N(C)C1=O (stereo not shown) [compound 212] | – | 100 to 1000 | – | – | – | – |
| CCC(C)C1NCCOc2ccccc2CCCNC(=O)C(Cc2ccccc2)NC(=O)C2CSCN2C1=O (stereo not shown) [compound 213] | – | > 1000 | – | – | – | – |
| CCC(C)C1NCCOc2ccccc2CCCNC(=O)C(Cc2ccccc2)NC(=O)C(COC(C)(C)C)NC1=O (stereo not shown) [compound 215] | – | 1000 to 10000 | – | – | – | – |
| C[C@@H]1C(=O)N[C@H](Cc2ccccc2)C(=O)NCCCc2ccccc2OCCN2CCCC[C@H]2C(=O)N1C [compound 226] | > 1000 | – | 10 to 100 | – | – | – |
| CC1C(=O)NC(Cc2ccc(Cl)cc2)C(=O)NCCCc2ccccc2OCCNC(C2CC2)C(=O)N1C (stereo not shown) [compound 299] | 1 to 100 | – | 0.1 to 10 | – | – | 0.1 to 10 |

Second part, the compound after the results:

| EC50 [1] [nM] | Ki [2, 3] [nM] | Ki [2, 4] [nM] | Ki [2, 5] [nM] | Ki ([2]; Table 3C (compounds 18, 334-397), human ghrelin receptor, read-out: Ki) [nM] | Ki ([2]; binding activity at the human ghrelin receptor, [125I]-ghrelin displacement, read-out: Ki) [nM] | Structure (SMILES) |
| --- | --- | --- | --- | --- | --- | --- |
| 1 to 100 | – | 10 to 100 | 10 to 100 | – | – | CC(C)C[C@@H]1NCCOc2ccccc2C=CCNC(=O)[C@H](Cc2ccccc2)NC(=O)C2(CCCC2)NC1=O (stereo in doubt) [Compound 8] |
| 1 to 100 | – | 10 to 100 | 10 to 100 | – | – | CC(C)C[C@@H]1NCCOc2ccccc2C=CCNC(=O)[C@H](Cc2ccc(Cl)cc2)NC(=O)C2(CCCC2)NC1=O (stereo in doubt) [compound 153] |
| 1 to 100 | – | 10 to 100 | 10 to 100 | – | – | CC(C)C[C@@H]1NCCOc2ccccc2C=CCNC(=O)[C@H](Cc2ccc(F)cc2)NC(=O)C2(CCCC2)NC1=O (stereo in doubt) [compound 154] |
| 1 to 100 | – | 10 to 100 | – | 10 to 100 | – | CC1(C)NC(=O)C2(CCCC2)NCCOc2ccccc2C=CCNC(=O)[C@H](Cc2cccc(Cl)c2)NC1=O (stereo in doubt) [compound 334] |
| 100 to 1000 | – | 100 to 1000 | 100 to 1000 | – | – | CC(C)[C@@H]1NCCOc2ccccc2CCCNC(=O)[C@@H](Cc2ccccc2)NC(=O)CN(C)C1=O [Compound 3] |
| 100 to 1000 | – | 100 to 1000 | 100 to 1000 | – | – | CC(C)[C@@H]1NCCOc2ccccc2CCCNC(=O)[C@H](Cc2ccccc2)NC(=O)C2(CCCC2)NC1=O [Compound 9] |
| 100 to 1000 | – | 100 to 1000 | 100 to 1000 | – | – | CC[C@H](C)[C@@H]1NCCOc2ccccc2CCCNC(=O)[C@@H](Cc2ccccc2)NC(=O)[C@@H](C)NC1=O [compound 2] |
| 100 to 1000 | – | 10 to 100 | 100 to 1000 | – | – | CC(C)C[C@@H]1NCCOc2ccccc2CCCNC(=O)[C@@H](Cc2ccccc2)NC(=O)C2(CCCC2)NC1=O [compound 97] |
| 100 to 1000 | – | 10 to 100 | 100 to 1000 | – | – | CC(C)C[C@@H]1NCCOc2ccccc2CCCNC(=O)[C@H](Cc2ccccc2)NC(=O)C2(CC2)NC1=O [compound 111] |
| 100 to 1000 | – | 10 to 100 | 100 to 1000 | – | – | CC(C)CC1NCCOc2ccccc2CCCNC(=O)C(Cc2ccccc2)NC(=O)C2(CCCC2)NC1=O (stereo not shown) [compound 113] |
| > 1000 | 100 to 1000 | 100 to 1000 | – | – | – | CC(C)C[C@@H]1NCCOc2ccccc2/C=C/CNC(=O)C2(CCCC2)NC(=O)C2(CCCC2)NC1=O [compound 168] |
| – | > 10000 | – | – | – | – | CC(C)C1NCCOc2ccccc2CCCNC(=O)C(Cc2ccccc2)NC(=O)C2(CCNCC2)NC1=O (stereo not shown) [compound 207] |
| – | 1000 to 10000 | – | – | – | – | CC(C)[C@@H]1NCCOc2ccccc2CCCNC(=O)[C@H](Cc2ccccc2)NC(=O)C2(CC2)NC1=O [compound 216] |
